Eight compounds from article PMC11157491, “Novel Alaninamide Derivatives with Drug-like Potential for Development as Antiseizure and Antinociceptive Therapies—In Vitro and In Vivo Characterization” (ACS Chemical Neuroscience, 2024) can be followed below.

Where only a bound is given, the exact number is not on record here.

Data set [1] has as its system mice. The data set is described as follows: Maximal electroshock (MES) seizure test. Format: in vivo. To be noted: for antiseizure protection in MES screening / responders at 100 mg/kg: 100 mg/kg i.p., 0.5 h; for antiseizure protection in MES screening: four mice; for responders at 100 mg/kg / ED50: Mus musculus, ip; for responders at 100 mg/kg: read-out: MES: number of mice protected/number of mice tested (converted); for ED50: mice, pretreatment 0.5 h. From the text: (§1) Identification and profiling of new ASM candidate compounds are still largely based on predictive animal models of seizures/epilepsy, while a range of in silico and in vitro approaches (i.e., molecular modeling or high throughput screening, etc.) are increasingly used in the early stages of ASM discovery.[31] The Epilepsy Therapy Screening Program (ETSP) of the National Institute of Neurological Disorders and Stroke (NIH, Bethesda, MD) has enabled the discovery of several approved ASMs by focusing on the in vivo testing of compounds synthesized by both academic laboratories and industry.[32] The ETSP provides a broad panel of seizure tests (ca. 30 rodent models), but a subset of them is used for the initial screening of new compounds with potential antiseizure activity. The routinely used seizure models include: (i) the MES test, which is an experimental model of tonic–clonic seizures, (ii) the 6 Hz model (32 mA) of focal seizures, and (iii) the scPTZ model of generalized absence or myoclonic seizures.[33],[34] Consequently, in the current studies, all final compounds 21–36 and 45–48 were initially studied in the MES and the 6 Hz (32 mA) seizure models after intraperitoneal (i.p.) administration at a screening dose of 100 mg/kg in mice at a time point of 0.5 h (the screening group consisted of four mice, and the results obtained are summarized in Table S1).
(§2) These parameters were then used to calculate the protective indexes (PIs, PI = TD50/ED50), which describe the therapeutics window of potential drug candidates. The ED50, TD50, and PI values for the tested compounds together with data of their chemical prototypes KA-11 and KJ-5 and reference ASMs are summarized in Table 2.
(§3) The adult male Albino Swiss mice weighed between 22 and 26 g were used in the in vivo studies. They were housed under standardized housing conditions in colony cages and had free access to food as well as tap water. The animals were left to adapt under laboratory conditions for 7 days. All procedures involving animals and their care were performed in accordance with the current European Community and Polish legislation on animal experimentation.
(§4) In the initial screening studies, four mice per group were randomly assigned to each experimental group (each mouse was used only once). To evaluate the ED50 or TD50 values, four groups consisting of eight animals were injected with various doses of tested compounds. The protective indexes (PIs) for the compounds investigated and reference ASMs were calculated by dividing the TD50 value, as determined in the chimney test, by the respective ED50 value, as determined in the MES, scPTZ, or 6 Hz (32 or 44 mA) tests (PI = TD50/ED50). The PIs are a measure of the potential therapeutic window of the tested agent.
(§5) All substances were suspended in Tween 80 (1% aqueous solution) and administered i.p. as a single injection at a dose of 10 mL/kg. On each day of experimentation, fresh solutions were prepared. The detailed in vivo procedures are described elsewhere: the maximal electroshock seizure test (MES),[60] the subcutaneous pentylenetetrazole seizure test (scPTZ),[61] the 6 Hz psychomotor seizure model (32 and 44 mA),[62] and the chimney test.[63] The reference ASMs were purchased from commercial suppliers: VPA (Sigma-Aldrich, St. Louis, MO), LCS, and LEV (UCB Pharma, Braine l’Alleud, Belgium).
A general note: In the maximal electroshock model the usual endpoint is tonic extension of the hind limbs.

In data set [2] the test system is mice. The data set is described as follows: 6 Hz (32 mA) psychomotor seizure model. Particulars: Mus musculus, ip; for responders at 100 mg/kg: 100 mg/kg i.p., 0.5 h; for ED50: mice, pretreatment 0.5 h. Format: in vivo.
Excerpt: as §1, §2, §3, §4, §5

Data set [3] deals with mice. The experiment in a line: Subcutaneous pentylenetetrazole (scPTZ) seizure test. In kind it is in vivo. To be noted: for protection in scPTZ screening / scPTZ: number of mice protected/number of mice tested: 100 mg/kg i.p.; for scPTZ: number of mice protected/number of mice tested: 0.5 h.
Excerpt: as §2, §4, §5

The target in the next data set is T1, TRPV1 (VR1) (h) (Homo sapiens, UniProt Q8NER1).
T1 construct: Eurofins (contract assay)
T1 sequence (Q8NER1 whole entry): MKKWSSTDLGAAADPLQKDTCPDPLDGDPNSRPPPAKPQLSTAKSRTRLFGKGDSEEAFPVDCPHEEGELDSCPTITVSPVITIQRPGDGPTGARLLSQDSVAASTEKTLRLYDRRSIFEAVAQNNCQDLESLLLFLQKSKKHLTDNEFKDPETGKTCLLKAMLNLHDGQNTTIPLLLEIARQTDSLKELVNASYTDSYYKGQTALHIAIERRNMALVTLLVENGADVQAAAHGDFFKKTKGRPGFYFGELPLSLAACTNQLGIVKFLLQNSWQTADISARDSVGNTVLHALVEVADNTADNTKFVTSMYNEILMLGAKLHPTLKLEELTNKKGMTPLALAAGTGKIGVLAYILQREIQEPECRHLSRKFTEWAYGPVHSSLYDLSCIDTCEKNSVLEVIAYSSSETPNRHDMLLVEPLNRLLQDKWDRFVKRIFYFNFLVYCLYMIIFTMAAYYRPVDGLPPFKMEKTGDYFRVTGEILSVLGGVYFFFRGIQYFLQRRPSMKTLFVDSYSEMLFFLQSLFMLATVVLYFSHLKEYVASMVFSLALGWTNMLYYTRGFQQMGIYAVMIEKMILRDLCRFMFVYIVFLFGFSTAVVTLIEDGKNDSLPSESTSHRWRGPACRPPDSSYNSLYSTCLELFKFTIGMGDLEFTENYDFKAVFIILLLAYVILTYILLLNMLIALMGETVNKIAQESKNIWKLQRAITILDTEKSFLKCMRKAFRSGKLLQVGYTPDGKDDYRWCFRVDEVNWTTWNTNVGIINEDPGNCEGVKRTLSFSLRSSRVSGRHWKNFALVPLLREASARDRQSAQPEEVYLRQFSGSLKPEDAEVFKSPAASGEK
The experiment in a line: TRPV1 antagonist effect functional assay. Format: cell-based. Particulars: human recombinant CHO cells; for inhibition at 10 µM: read-out: % inhibition of control agonist response. As to the method: For many years, the TRPV1 channel, permeable to calcium and sodium ions, has been recognized as a promising molecular target for novel analgesics.[19] […] Therefore, bearing in mind the involvement of TRPV1 in pain sensation and potentially in seizure induction, in the next step of the in vitro studies, the TRPV1 antagonist activity was determined for all compounds obtained (Table 6).
Binding/functional studies were carried out commercially in Eurofins Laboratories (Poitiers, France) and Eurofins Panlabs Discovery Services Taiwan, Ltd. (New Taipei City, Taiwan) using testing procedures that were reported previously (for details, see Table S2).
Table S2. Radioligand binding and functional assays. […]
TRPV1 (VR1) (h) (antagonist effect) […]
Assays were performed commercially in Eurofins Laboratories ( Poitiers, France) or Eurofins Panlabs Discovery Services
Taiwan, Ltd. (New Taipei City, Taiwan).

Setting [4] is: four mice, read-out: protection in 6 Hz (32 mA) screening.
The mark [5] stands for this setting: read-out: 6 Hz (32 mA): number of mice protected/number of mice tested (converted).

In general, ED50 refers to the dose that gives a 50% effect, or the effect in half of the subjects. By inhibition is commonly meant the drop in the measured response relative to a control, in per cent. Usually Kb stands for the equilibrium dissociation constant of an antagonist, usually derived from a functional assay. As usually defined, the melting point is the temperature, or range, at which the solid turns liquid. Consider `CC(=O)NC(C)C(=O)N1CCN(c2ccc(Cl)c(Cl)c2)CC1` (stereo not shown) [Compound 24, N-(1-(4-(3,4-Dichlorophenyl)piperazin-1-yl)-1-oxopropan-2-yl)acetamide], for which the melting point lay within 152.1 to 152.9 °C. In the data set on mice [1], the “antiseizure protection in MES screening” value stood at 75%, the responders at 100 mg/kg is 75% and the ED50 is above 150 mg/kg. The responders at 100 mg/kg with mice [2] (setting [4]) stood at 100%. Besides, the responders at 100 mg/kg in the data set with mice [2] (setting [5]) is 100%. For the same compound, the median effective dose (ED50) in the data set with mice [2] came to 41.4 mg/kg. Besides, in the data set with mice [3], the “protection in scPTZ screening” value is 75% and the “scPTZ: number of mice protected/number of mice tested” value is listed as 3/4. In addition, the median effective dose (ED50) with mice [3] (Mus musculus, ip, mice) was 116 mg/kg. Also, at TRPV1 (VR1) (h), the inhibition at 10 µM came out at 51.5% and the Kb is 4.5 µM.
`CC(=O)NC(C)C(=O)N1CCN(c2cccc(Oc3ccccc3)c2)CC1` (stereo not shown) [Compound 29, N-(1-oxo-1-(4-(3-Phenoxyphenyl)piperazin-1-yl)propan-2-yl)acetamide] gave a melting point of 133.6 to 134.3 °C. Also, in the data set with mice [1], the responders at 100 mg/kg is 100% and the 50% effective dose (ED50) amounted to 39.9 mg/kg. Moreover, in the data set with mice [2] (setting [4]), the responders at 100 mg/kg was 75%. The responders at 100 mg/kg with mice [2] (setting [5]) is 75%. Further, the ED50 with mice [2] was 41.2 mg/kg. Moreover, in the data set on mice [3], the “protection in scPTZ screening” value is “no activity” and the “scPTZ: number of mice protected/number of mice tested” value is reported as 0/4. Also, on TRPV1 (VR1) (h), the inhibition at 10 µM amounted to 104% and the Kb was 4.2 µM.
For `CC(=O)NC(C)C(=O)N1CCN(c2cc(Cl)cc(Cl)c2)CC1` (stereo not shown) [Compound 25, N-(1-(4-(3,5-Dichlorophenyl)piperazin-1-yl)-1-oxopropan-2-yl)acetamide], the melting point fell in the range of 164.6 to 165.4 °C. Moreover, in the data set on mice [1], the “antiseizure protection in MES screening” value is given as 75%, the responders at 100 mg/kg was 75% and the median effective dose (ED50) came out at 52.9 mg/kg. Besides, in the data set on mice [2] (setting [4]), the responders at 100 mg/kg was 75%. Also, in the data set with mice [2] (setting [5]), the responders at 100 mg/kg is 75%. The ED50 in the data set with mice [2] is 56.1 mg/kg. For the same compound, in the data set on mice [3], the “protection in scPTZ screening” value came to 50% and the “scPTZ: number of mice protected/number of mice tested” value was 2/4. The inhibition at 10 µM on TRPV1 (VR1) (h) turned out to be 8.1%.
As for `CC(=O)NC(C)C(=O)N1CCN(c2cccc(SC(F)(F)F)c2)CC1` (stereo not shown) [Compound 30, N-(1-oxo-1-(4-(3-((Trifluoromethyl)thio)phenyl)piperazin-1-yl)propan-2-yl)acetamide], the melting point fell in the range of 110.9 to 111.7 °C. In the data set with mice [1], the responders at 100 mg/kg was 100% and the 50% effective dose (ED50) is 45.3 mg/kg. Also, the responders at 100 mg/kg with mice [2] (setting [4]) was 100%. Besides, the responders at 100 mg/kg in the data set on mice [2] (setting [5]) is 100%. In the data set on mice [2], the ED50 was 39.1 mg/kg. In the data set on mice [3], the “protection in scPTZ screening” value was found to be 50% and the “scPTZ: number of mice protected/number of mice tested” value is reported as 2/4. At TRPV1 (VR1) (h), the inhibition at 10 µM came to 12%.
`CC(=O)NC(C)C(=O)N1CCN(c2ccc(C(F)(F)F)cc2)CC1` (stereo not shown) [Compound 27, N-(1-oxo-1-(4-(4-(Trifluoromethyl)phenyl)piperazin-1-yl)propan-2-yl)acetamide] had a melting point of 132.8 to 133.3 °C. Besides, in the data set with mice [1], the “antiseizure protection in MES screening” value is 25% and the responders at 100 mg/kg was 25%. Moreover, the responders at 100 mg/kg in the data set on mice [2] (setting [5]) was 0%. In addition, the inhibition at 10 µM at TRPV1 (VR1) (h) was -15.9%.
For `CC(C)NC(=O)NC(C)C(=O)N1CCN(c2cccc(C(F)(F)F)c2)CC1` (stereo not shown) [Compound 36, 1-Isopropyl-3-(1-oxo-1-(4-(3-(trifluoromethyl)phenyl)piperazin-1-yl)propan-2-yl)urea], the melting point was 144.5 to 145.4 °C. Further, in the data set with mice [1], the “antiseizure protection in MES screening” value is 25% and the responders at 100 mg/kg was 25%. The responders at 100 mg/kg in the data set on mice [2] (setting [4]) came to 25%. Further, the responders at 100 mg/kg in the data set with mice [2] (setting [5]) was 25%. On TRPV1 (VR1) (h), the inhibition at 10 µM is -13.6%.
The compound `CC(NC(=O)c1ccccc1)C(=O)N1CCN(c2cccc(C(F)(F)F)c2)CC1` (stereo not shown) [Compound 32, N-(1-oxo-1-(4-(3-(Trifluoromethyl)phenyl)piperazin-1-yl)propan-2-yl)benzamide] registered a melting point of 165.8 to 166.5 °C. Besides, the responders at 100 mg/kg in the data set with mice [1] is 0%. Besides, the responders at 100 mg/kg in the data set on mice [2] (setting [4]) was 25%. In addition, in the data set on mice [2] (setting [5]), the responders at 100 mg/kg was 25%. In addition, on TRPV1 (VR1) (h), the inhibition at 10 µM is -16.1%.
As to `CC(=O)NC(C)C(=O)N1CCN(c2cccc(Cl)c2)CC1` (stereo not shown) [Compound 22, N-(1-(4-(3-Chlorophenyl)piperazin-1-yl)-1-oxopropan-2-yl)acetamide], the melting point lay in the range of 125.8 to 126.5 °C. Moreover, in the data set on mice [1], the “antiseizure protection in MES screening” value worked out at 100%, the responders at 100 mg/kg was 100% and the ED50 worked out at 122 mg/kg. Besides, the responders at 100 mg/kg in the data set on mice [2] (setting [4]) worked out at 75%. For the same compound, the responders at 100 mg/kg in the data set with mice [2] (setting [5]) was 75%. For the same compound, the median effective dose (ED50) in the data set on mice [2] is 77.3 mg/kg. Moreover, in the data set on mice [3], the “protection in scPTZ screening” value amounted to 25% and the “scPTZ: number of mice protected/number of mice tested” value is on record as 1/4. Moreover, the inhibition at 10 µM at TRPV1 (VR1) (h) is 12.5%.
